The record followed here is article PMC12951430, “Modular Vinyl Phosphonamidates for Cysteine-Directed Protein Targeting” (Journal of the American Chemical Society, 2026).

For data set [1] the following is noted: unprotected lysine 10 equiv, 5 days, pH 7.4 and pH 8.5, room temperature.
Description: To this end, unprotected lysine (10 equiv) was incubated with 1a for 5 days (pH 7.4 and pH 8.5, room temperature).
The assay was performed analogously to glutathion reactivity using L -lysine. In addition to pH 7.4
The reaction was monitored for a total
of 5 days and aliquotes were taken at indicated timepoints and analyzed via UPLC -UV/MS.
In data set [2] the test system is RAMOS cells. Description: Streptavidin pull-down with BTK probes in RAMOS cells (LFQ). It counts as cell-based, human. The note with it: 10 μM probe, log2-fold change >2.5, p <0.01. The procedure: (b) Comparison of the in-cell reactivity profiles of BTK probes 8–12 in RAMOS cells (250 nM, 1 h, 37 °C) analyzed by gel-based ABPP. (c) Superposition of the two stereoisomers of 9 covalently docked onto the crystal structure of BTK (PDB: 5P9J).
To verify the identity of the protein(s) labeled by our best-performing probe 9, we performed in-cell labeling followed by streptavidin pull-down coupled to LC-MS/MS analysis.
4.8 In-cell protein labeling and s ample preparation for proteomic pull-down Cells were cultured, treated and lysed as described in 4.4. Lysates (approx. 200 μg of protein each) […]
Afterwards, the samples we re processed according to a procedure published by Becker et al. 10: A total of 50 μl of mixed hydrophobic and hydrophilic carboxylate -coated magnetic beads (1:1, prewashed with PBS; Seramag™, Cytavia) was added to the click reaction mixture followed by 600 μl of absolute ethanol to precipitate the proteins. Beads were washed thrice with of 80% ethanol and proteins were eluted by two sequential washes of 0.2% SDS in PBS. […]
The obtained raw-data was analyzed using FragPipe (v20 to 21) using the built-in LFQ-MBR workflow using the whole human proteome as search space and applying the following MSFragger11 settings: […]

The target of data set [3] is T1, BTK in RAMOS cells (Homo sapiens, UniProt Q06187).
T1 construct: we performed a gel-based ABPP experiment using RAMOS cells; host or cells: RAMOS
T1 sequence (Q06187 whole entry): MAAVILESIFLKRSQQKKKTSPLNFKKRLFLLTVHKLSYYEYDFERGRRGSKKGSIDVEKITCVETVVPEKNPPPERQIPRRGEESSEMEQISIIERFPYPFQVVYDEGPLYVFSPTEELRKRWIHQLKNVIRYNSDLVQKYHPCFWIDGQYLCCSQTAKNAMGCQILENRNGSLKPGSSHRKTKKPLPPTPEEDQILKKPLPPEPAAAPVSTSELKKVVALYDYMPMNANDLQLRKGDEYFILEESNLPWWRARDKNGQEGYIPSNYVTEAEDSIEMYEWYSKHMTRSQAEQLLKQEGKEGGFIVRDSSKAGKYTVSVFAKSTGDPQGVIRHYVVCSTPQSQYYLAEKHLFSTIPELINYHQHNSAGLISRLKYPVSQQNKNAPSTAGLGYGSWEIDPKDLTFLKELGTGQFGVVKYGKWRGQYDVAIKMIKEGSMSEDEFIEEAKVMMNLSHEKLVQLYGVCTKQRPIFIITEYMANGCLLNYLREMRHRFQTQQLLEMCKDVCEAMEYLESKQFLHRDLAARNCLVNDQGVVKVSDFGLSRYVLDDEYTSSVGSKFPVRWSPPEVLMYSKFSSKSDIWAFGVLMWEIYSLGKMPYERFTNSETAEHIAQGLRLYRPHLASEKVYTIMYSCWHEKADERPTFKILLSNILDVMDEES
Description: Gel-based ABPP of BTK probes in RAMOS cells. It counts as cell-based. The settings on record: 250 nM, 1 h, 37 °C. From the text:
Motivated by these promising results, we wanted to extend the scope toward a different class of kinase inhibitors. […] Inspired by these findings, we synthesized a series of VPA probes based on the pyrazolo[3,4-d]-pyrimidine scaffold (8–11, Figure a), each harboring a different aromatic linker. To compare their reactivity and selectivity for BTK, we performed a gel-based ABPP experiment using RAMOS cells. […] In contrast, for all four PA probes, only one intense band was obtained at the same height as BTK. […] Analogously to Afatinib-derived probe 4a, we wanted to investigate whether one stereoisomer might show preferential binding.
(b) Comparison of the in-cell reactivity profiles of BTK probes 8–12 in RAMOS cells (250 nM, 1 h, 37 °C) analyzed by gel-based ABPP. […]
Fluorescence was monitored over 4 h at 30 °C every 60 seconds (λex = 360 nm and λem = 492 nm).
Background‑subtracted fluorescence intensity (RFU) was plotted against time (s), and data were fitted to a single‑phase association model: […]
4.7 In-cell protein labeling and in -gel fluorescence analysis […]
Afterwards, the precipitate was redissolved in 40 µl 8 M urea (100 mM Tris, pH 8), 8 µl Laemmli buffer were added and the samples were denatured at 95 °C for 5 minutes. Proteins were seperated via SDS - PAGE (12% or 4-20% acrylamide gels) and analyzed on a Gel Doc XR+ (Bio-Rad, USA). […]

In the case of `C=CP(=O)(Nc1ccccc1)OCC` (stereo not drawn) [1a], the “reactivity toward L-lysine / buffer stability” value in data set [1] is recorded as “no reaction or degradation products were detected”. The compound `C#Cc1cccc(Oc2ccc(-c3nn(C4CCCN(C(=O)C=C)C4)c4ncnc(N)c34)cc2)c1` (stereo not drawn) [compound 12, PF-06658607, reference compound] came in with an off-targets significantly enriched in data set [2] of 73. In addition, the “in-cell reactivity profile (gel bands)” value in data set [3] was “additional prominent off-target band around 60 kDa”.
